Reference: PubChem BioAssay (NCI)
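Test compounds were applied to cells in 96-well plates for 48 hours at 5 doses. TGI: total growth inhibition.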

Key:
Experiment in all cases: NCI tumour cell line growth inhibition, 48 h
MCF7 breast = tested on: MCF7 breast
MDA-MB-435 = tested on: MDA-MB-435
PC-3 prostate = tested on: PC-3 prostate
SNB-75 CNS = tested on: SNB-75 CNS
DU-145 prostate = tested on: DU-145 prostate
HOP-62 NSCLC = tested on: HOP-62 NSCLC
OVCAR-4 ovarian = tested on: OVCAR-4 ovarian
IGROV1 ovarian = tested on: IGROV1 ovarian
T-47D breast = tested on: T-47D breast
BT-549 breast = tested on: BT-549 breast
MDA-N = tested on: MDA-N
UACC-257 melanoma = tested on: UACC-257 melanoma
LOX IMVI melanoma = tested on: LOX IMVI melanoma
SF-268 CNS = tested on: SF-268 CNS
COLO 205 colon = tested on: COLO 205 colon
DMS 273 small cell lung = tested on: DMS 273 small cell lung
LXFL 529 NSCLC = tested on: LXFL 529 NSCLC
KM20L2 colon = tested on: KM20L2 colon
DLD-1 colon = tested on: DLD-1 colon
M19-MEL melanoma = tested on: M19-MEL melanoma

Measured: TGI

CC(=S)NC1C(Oc2ccc3c(C)cc(=O)oc3c2)OC(CO)C(O)C1O (stereo not drawn)
not listed: SF-268 CNS | COLO 205 colon | DMS 273 small cell lung | LXFL 529 NSCLC | KM20L2 colon | DLD-1 colon | M19-MEL melanoma
> 100 µM: all other assays above

CC(C)OP(=O)(OC(C)C)c1ncn(-c2ccc([N+](=O)[O-])cc2)n1
not listed: MCF7 breast | MDA-MB-435 | PC-3 prostate | DU-145 prostate | T-47D breast | BT-549 breast | MDA-N | LOX IMVI melanoma
> 100 µM: all other assays above

C[Si](C)(C)C1=C2C(=O)c3ccccc3C(=O)C2=C([Si](C)(C)C)[C@@H]2CCCC[C@H]12
not listed: SNB-75 CNS | HOP-62 NSCLC | SF-268 CNS | DMS 273 small cell lung | LXFL 529 NSCLC | KM20L2 colon | DLD-1 colon | M19-MEL melanoma
> 100 µM: all other assays above

CN1C(=N\S(=O)(=O)c2ccc(Cl)cc2)/C(=N/N=P(c2ccccc2)(c2ccccc2)c2ccccc2)c2ccccc21
> 100 µM: SF-268 CNS | COLO 205 colon | SNB-75 CNS | OVCAR-4 ovarian | DMS 273 small cell lung | IGROV1 ovarian | LXFL 529 NSCLC | UACC-257 melanoma | KM20L2 colon | DLD-1 colon | M19-MEL melanoma
